Test results as given in patent EP4722207A1, “OXOISOINDOLINYL-SUBSTITUTED TETRAHYDROPYRIMIDINEDIONE DERIVATIVE AND USE THEREOF” (Gluetacs Therapeutics (Shanghai) Co., Ltd., priority 2023, dated 2024).

Assays:
Format in all cases: cell-based
Conditions in all cases: 24 hours of compound treatment, 50 nM and 500 nM
IKZF3 = target: T1, IKZF3 (Homo sapiens, UniProt Q96SW2+Q9UKT9); test: Western-blot assay, substrate protein degradation in hPBMCs: IKZF3
T1 construct: effects of the compounds of the present disclosure on the expression of target proteins in cells; endogenous in cells; host or cells: human PBMCs (hPBMCs)

WEE1 = target: T2, WEE1 (Homo sapiens, UniProt P30291+Q96SW2); test: Western-blot assay, substrate protein degradation in hPBMCs: WEE1
T2 construct: effects of the compounds of the present disclosure on the expression of target proteins in cells; endogenous in cells; host or cells: human PBMCs (hPBMCs)

CK1α = target: T3, CK1α (Homo sapiens, UniProt P48729+Q96SW2); test: Western-blot assay, substrate protein degradation in hPBMCs: CK1α
T3 construct: effects of the compounds of the present disclosure on the expression of target proteins in cells; endogenous in cells; host or cells: human PBMCs (hPBMCs)

IKZF2 = target: T4, IKZF2 (Homo sapiens, UniProt Q96SW2+Q9UKS7); test: Western-blot assay, substrate protein degradation in hPBMCs: IKZF2
T4 construct: effects of the compounds of the present disclosure on the expression of target proteins in cells; endogenous in cells; host or cells: human PBMCs (hPBMCs)

GSPT1 = target: T5, GSPT1 (Homo sapiens, UniProt P15170+Q96SW2); test: Western-blot assay, substrate protein degradation in hPBMCs: GSPT1
T5 construct: effects of the compounds of the present disclosure on the expression of target proteins in cells; endogenous in cells; host or cells: human PBMCs (hPBMCs)

IKZF1 = target: T6, IKZF1 (Homo sapiens, UniProt Q13422+Q96SW2); test: Western-blot assay, substrate protein degradation in hPBMCs: IKZF1
T6 construct: effects of the compounds of the present disclosure on the expression of target proteins in cells; endogenous in cells; host or cells: human PBMCs (hPBMCs)
T6 sequence (Q13422 whole entry): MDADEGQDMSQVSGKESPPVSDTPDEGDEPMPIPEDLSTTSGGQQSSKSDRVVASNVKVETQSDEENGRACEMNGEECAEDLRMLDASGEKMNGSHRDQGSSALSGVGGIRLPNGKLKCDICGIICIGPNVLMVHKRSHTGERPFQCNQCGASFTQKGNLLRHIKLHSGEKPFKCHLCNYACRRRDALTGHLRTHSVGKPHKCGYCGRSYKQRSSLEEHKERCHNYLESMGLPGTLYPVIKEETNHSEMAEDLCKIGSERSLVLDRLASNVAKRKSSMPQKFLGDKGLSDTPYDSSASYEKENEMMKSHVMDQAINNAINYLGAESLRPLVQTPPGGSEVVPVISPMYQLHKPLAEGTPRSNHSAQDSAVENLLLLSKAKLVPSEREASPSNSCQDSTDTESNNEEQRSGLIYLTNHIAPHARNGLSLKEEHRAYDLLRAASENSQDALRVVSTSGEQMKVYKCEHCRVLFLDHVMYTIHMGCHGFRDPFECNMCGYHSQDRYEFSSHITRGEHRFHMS
T6 sequence (Q96SW2 whole entry): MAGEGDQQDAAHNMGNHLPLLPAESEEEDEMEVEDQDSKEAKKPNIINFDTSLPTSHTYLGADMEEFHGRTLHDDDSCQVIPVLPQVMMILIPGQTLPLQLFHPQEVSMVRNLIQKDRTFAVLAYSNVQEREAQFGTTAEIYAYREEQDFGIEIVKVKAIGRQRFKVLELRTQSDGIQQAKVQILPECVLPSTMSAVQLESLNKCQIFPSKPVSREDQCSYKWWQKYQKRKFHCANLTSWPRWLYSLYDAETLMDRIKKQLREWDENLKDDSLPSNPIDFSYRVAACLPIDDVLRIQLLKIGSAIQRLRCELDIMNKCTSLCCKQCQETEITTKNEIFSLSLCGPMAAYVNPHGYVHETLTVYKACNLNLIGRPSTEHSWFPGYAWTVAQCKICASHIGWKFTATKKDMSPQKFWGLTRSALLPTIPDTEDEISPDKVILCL
T6 sequence (Q16531 whole entry partner): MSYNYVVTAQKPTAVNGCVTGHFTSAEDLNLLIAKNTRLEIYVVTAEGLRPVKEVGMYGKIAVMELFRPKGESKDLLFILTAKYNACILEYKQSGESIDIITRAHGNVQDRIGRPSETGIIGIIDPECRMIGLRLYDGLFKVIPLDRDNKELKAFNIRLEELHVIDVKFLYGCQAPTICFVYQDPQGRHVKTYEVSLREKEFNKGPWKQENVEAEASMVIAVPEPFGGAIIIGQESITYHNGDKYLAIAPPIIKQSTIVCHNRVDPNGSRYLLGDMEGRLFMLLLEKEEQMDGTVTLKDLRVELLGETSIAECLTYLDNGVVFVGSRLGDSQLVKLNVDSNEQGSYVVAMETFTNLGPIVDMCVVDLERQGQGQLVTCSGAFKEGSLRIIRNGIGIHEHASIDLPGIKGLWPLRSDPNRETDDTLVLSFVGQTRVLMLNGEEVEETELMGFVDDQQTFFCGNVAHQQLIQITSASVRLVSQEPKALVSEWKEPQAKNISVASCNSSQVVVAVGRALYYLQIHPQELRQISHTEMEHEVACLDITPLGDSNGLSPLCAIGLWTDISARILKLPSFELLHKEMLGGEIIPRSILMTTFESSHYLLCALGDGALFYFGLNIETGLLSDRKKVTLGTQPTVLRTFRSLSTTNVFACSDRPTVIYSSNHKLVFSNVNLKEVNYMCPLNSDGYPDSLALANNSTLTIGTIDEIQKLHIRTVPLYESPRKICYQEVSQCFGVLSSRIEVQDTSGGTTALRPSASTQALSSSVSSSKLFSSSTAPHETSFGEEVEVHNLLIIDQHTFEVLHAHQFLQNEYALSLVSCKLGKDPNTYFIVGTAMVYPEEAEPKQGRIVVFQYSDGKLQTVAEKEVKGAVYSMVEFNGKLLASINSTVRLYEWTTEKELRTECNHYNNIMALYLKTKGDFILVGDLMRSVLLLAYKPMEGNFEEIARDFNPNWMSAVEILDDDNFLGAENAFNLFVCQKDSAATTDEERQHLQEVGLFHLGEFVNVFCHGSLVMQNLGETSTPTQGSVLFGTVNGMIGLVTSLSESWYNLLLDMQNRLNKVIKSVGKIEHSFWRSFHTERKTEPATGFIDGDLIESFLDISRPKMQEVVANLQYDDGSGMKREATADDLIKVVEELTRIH

T4 sequence (Q9UKS7 whole entry): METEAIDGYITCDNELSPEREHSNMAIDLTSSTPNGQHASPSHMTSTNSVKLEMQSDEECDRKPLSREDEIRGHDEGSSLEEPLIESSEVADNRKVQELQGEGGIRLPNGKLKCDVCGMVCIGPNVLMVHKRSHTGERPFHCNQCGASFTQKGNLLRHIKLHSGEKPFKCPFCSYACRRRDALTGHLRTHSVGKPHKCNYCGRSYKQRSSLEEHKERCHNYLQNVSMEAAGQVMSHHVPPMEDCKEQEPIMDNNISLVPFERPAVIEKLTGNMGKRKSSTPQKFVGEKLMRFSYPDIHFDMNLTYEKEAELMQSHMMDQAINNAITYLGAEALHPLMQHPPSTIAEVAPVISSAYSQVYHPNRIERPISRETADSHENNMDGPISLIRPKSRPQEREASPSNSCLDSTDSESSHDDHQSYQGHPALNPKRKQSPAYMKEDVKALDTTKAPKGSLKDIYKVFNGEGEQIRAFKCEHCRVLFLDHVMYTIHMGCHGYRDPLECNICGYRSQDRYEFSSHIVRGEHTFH
T4 sequence (Q96SW2 whole entry): as the sequence (Q96SW2 whole entry) above
T4 sequence (Q16531 whole entry partner): as the sequence (Q16531 whole entry partner) above
T5 sequence (P15170 whole entry): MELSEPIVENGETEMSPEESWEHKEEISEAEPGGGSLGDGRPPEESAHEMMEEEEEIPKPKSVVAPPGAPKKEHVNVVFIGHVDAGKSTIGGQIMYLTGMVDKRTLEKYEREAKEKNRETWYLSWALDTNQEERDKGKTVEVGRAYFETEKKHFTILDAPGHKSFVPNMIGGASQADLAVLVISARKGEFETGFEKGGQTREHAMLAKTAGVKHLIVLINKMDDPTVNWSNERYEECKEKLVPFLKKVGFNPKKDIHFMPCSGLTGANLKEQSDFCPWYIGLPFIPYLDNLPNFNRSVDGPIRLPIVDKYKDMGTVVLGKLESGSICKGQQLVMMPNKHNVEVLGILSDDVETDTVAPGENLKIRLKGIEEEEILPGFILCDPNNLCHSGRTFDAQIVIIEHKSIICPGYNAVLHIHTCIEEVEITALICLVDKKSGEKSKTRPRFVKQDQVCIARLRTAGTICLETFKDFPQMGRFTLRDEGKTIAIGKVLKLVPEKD
T5 sequence (Q96SW2 whole entry): as the sequence (Q96SW2 whole entry) above
T5 sequence (Q16531 whole entry partner): as the sequence (Q16531 whole entry partner) above
T2 sequence (P30291 whole entry): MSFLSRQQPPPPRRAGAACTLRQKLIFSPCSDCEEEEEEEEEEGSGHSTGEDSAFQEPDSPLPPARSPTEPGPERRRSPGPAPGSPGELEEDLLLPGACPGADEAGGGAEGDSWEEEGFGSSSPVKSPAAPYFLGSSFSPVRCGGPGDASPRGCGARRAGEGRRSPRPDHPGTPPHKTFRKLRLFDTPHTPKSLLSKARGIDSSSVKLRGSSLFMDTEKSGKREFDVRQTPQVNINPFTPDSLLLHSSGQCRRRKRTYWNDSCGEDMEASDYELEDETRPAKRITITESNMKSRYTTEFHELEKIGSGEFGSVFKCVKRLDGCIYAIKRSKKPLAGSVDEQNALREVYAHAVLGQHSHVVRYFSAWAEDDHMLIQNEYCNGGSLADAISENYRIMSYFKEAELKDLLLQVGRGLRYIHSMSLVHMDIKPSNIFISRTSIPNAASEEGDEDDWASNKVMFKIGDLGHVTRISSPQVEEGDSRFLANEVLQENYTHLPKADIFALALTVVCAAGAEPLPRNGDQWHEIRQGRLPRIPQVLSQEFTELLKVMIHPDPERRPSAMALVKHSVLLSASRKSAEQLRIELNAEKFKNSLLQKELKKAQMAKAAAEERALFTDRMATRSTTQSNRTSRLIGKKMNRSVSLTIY
T2 sequence (Q96SW2 whole entry): as the sequence (Q96SW2 whole entry) above
T2 sequence (Q16531 whole entry partner): as the sequence (Q16531 whole entry partner) above
T1 sequence (Q9UKT9 whole entry): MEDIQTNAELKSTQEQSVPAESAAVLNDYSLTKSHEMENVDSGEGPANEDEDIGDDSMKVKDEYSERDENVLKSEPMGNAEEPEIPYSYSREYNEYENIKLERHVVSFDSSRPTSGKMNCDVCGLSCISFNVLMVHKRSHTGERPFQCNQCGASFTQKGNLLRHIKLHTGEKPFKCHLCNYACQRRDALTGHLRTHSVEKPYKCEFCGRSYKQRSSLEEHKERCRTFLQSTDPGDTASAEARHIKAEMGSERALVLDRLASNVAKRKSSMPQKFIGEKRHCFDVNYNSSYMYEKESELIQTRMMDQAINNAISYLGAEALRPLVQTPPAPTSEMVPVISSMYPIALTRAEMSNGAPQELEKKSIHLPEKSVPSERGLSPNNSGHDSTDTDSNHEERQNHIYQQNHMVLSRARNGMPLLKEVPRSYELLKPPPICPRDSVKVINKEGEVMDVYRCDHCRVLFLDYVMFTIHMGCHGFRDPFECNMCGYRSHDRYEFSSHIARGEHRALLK
T1 sequence (Q96SW2 whole entry): as the sequence (Q96SW2 whole entry) above
T1 sequence (Q16531 whole entry partner): as the sequence (Q16531 whole entry partner) above

| SMILES | substrate protein remaining % IKZF3 (IKZF3) | substrate protein remaining % WEE1 (WEE1) | substrate protein remaining % CK1α (CK1α) | substrate protein remaining % IKZF2 (IKZF2) | substrate protein remaining % GSPT1 (GSPT1) | substrate protein remaining % IKZF1 (IKZF1) |
| --- | --- | --- | --- | --- | --- | --- |
| O=C1CCN(N2Cc3cc(CN4CCN(c5nsc6cc(F)ccc56)CC4)ccc3C2=O)C(=O)N1 [GT-07500, 1-(5-((4-(6-fluorobenzo[d]isothiazol-3-yl)piperazin-1-yl)methyl)-1-oxoisoindolin-2-yl)dihydropyrimidine-2,4(1H,3H)-dione] | B (80%< substrate protein remaining %≤ 100%) | A (0% ≤ substrate protein remaining % ≤ 80%) | A (0% ≤ substrate protein remaining % ≤ 80%) | B (80%< substrate protein remaining %≤ 100%) | A (0% ≤ substrate protein remaining % ≤ 80%) | A (0% ≤ substrate protein remaining % ≤ 80%) |
| O=C1CCN(N2Cc3cc(CN4CCN(c5c[nH]c6ncccc56)CC4)ccc3C2=O)C(=O)N1 [GT-07502, 1-(5-((4-(1H-pyrrolo[2,3-b]pyridin-3-yl)piperazin-1-yl)methyl)-1-oxoisoindolin-2-yl)dihydropyrimidine-2,4(1H,3H)-dione] | B (80%< substrate protein remaining %≤ 100%) | A (0% ≤ substrate protein remaining % ≤ 80%) | A (0% ≤ substrate protein remaining % ≤ 80%) | B (80%< substrate protein remaining %≤ 100%) | A (0% ≤ substrate protein remaining % ≤ 80%) | A (0% ≤ substrate protein remaining % ≤ 80%) |
| O=C1CCN(N2Cc3cc(CN4CCC(n5cnc6cc(F)ccc65)CC4)ccc3C2=O)C(=O)N1 [GT-07503, 1-(5-((4-(5-fluoro-1H-benzo[d]imidazol-1-yl)piperidin-1-yl)methyl)-1-oxoisoindolin-2-yl)dihydropyrimidine-2,4(1H,3H)-dione] | B (80%< substrate protein remaining %≤ 100%) | A (0% ≤ substrate protein remaining % ≤ 80%) | A (0% ≤ substrate protein remaining % ≤ 80%) | B (80%< substrate protein remaining %≤ 100%) | A (0% ≤ substrate protein remaining % ≤ 80%) | A (0% ≤ substrate protein remaining % ≤ 80%) |
| O=C1CCN(N2Cc3cc(CN4CCC(c5n[nH]c6cc(F)ccc56)CC4)ccc3C2=O)C(=O)N1 [GT-07508, 1-(5-((4-(6-fluoro-1H-indazol-3-yl)piperidin-1-yl)methyl)-1-oxoisoindolin-2-yl)dihydropyrimidine-2,4(1H,3H)-dione] | B (80%< substrate protein remaining %≤ 100%) | A (0% ≤ substrate protein remaining % ≤ 80%) | A (0% ≤ substrate protein remaining % ≤ 80%) | A (0% ≤ substrate protein remaining % ≤ 80%) | A (0% ≤ substrate protein remaining % ≤ 80%) | A (0% ≤ substrate protein remaining % ≤ 80%) |
| O=C1CCN(N2C(=O)c3ccc(CN4CCC(c5noc6ccccc56)CC4)cc3C2=O)C(=O)N1 [GT-07522, 5-((4-(benzo[d]isoxazol-3-yl)piperidin-1-yl)methyl)-2-(2,4-dioxotetrahydropyrimidin-1(2H)-yl)isoindoline-1,3-dione] | B (80%< substrate protein remaining %≤ 100%) | A (0% ≤ substrate protein remaining % ≤ 80%) | A (0% ≤ substrate protein remaining % ≤ 80%) | A (0% ≤ substrate protein remaining % ≤ 80%) | A (0% ≤ substrate protein remaining % ≤ 80%) | A (0% ≤ substrate protein remaining % ≤ 80%) |
| O=C1CCN(N2C(=O)c3ccc(CN4CCC(c5ccon5)CC4)cc3C2=O)C(=O)N1 [GT-07523, 2-(2,4-dioxotetrahydropyrimidin-1(2H)-yl)-5-((4-(isoxazol-3-yl)piperidin-1-yl)methyl)isoindoline-1,3-dione] | B (80%< substrate protein remaining %≤ 100%) | A (0% ≤ substrate protein remaining % ≤ 80%) | A (0% ≤ substrate protein remaining % ≤ 80%) | A (0% ≤ substrate protein remaining % ≤ 80%) | A (0% ≤ substrate protein remaining % ≤ 80%) | A (0% ≤ substrate protein remaining % ≤ 80%) |
| O=C1CCN(N2C(=O)c3ccc(CN4CCN(c5noc6cc(F)ccc56)CC4)cc3C2=O)C(=O)N1 [GT-07524, 2-(2,4-dioxotetrahydropyrimidin-1(2H)-yl)-5-((4-(6-fluorobenzo[d]isoxazol-3-yl)piperazin-1-yl)methyl)isoindoline-1,3-dione] | B (80%< substrate protein remaining %≤ 100%) | A (0% ≤ substrate protein remaining % ≤ 80%) | B (80%< substrate protein remaining %≤ 100%) | A (0% ≤ substrate protein remaining % ≤ 80%) | A (0% ≤ substrate protein remaining % ≤ 80%) | A (0% ≤ substrate protein remaining % ≤ 80%) |
| O=C1CCN(N2C(=O)c3ccc(CN4CCN(c5noc6ccncc56)CC4)cc3C2=O)C(=O)N1 [GT-07525, 2-(2,4-dioxotetrahydropyrimidin-1(2H)-yl)-5-((4-(isoxazolo[4,5-c]pyridin-3-yl)piperazin-1-yl)methyl)isoindoline-1,3-dione] | B (80%< substrate protein remaining %≤ 100%) | B (80%< substrate protein remaining %≤ 100%) | A (0% ≤ substrate protein remaining % ≤ 80%) | B (80%< substrate protein remaining %≤ 100%) | A (0% ≤ substrate protein remaining % ≤ 80%) | B (80%< substrate protein remaining %≤ 100%) |
| O=C1CCN(N2C(=O)c3ccc(CN4CCN(c5nsc6cc(F)ccc56)CC4)cc3C2=O)C(=O)N1 [GT-07526, 2-(2,4-dioxotetrahydropyrimidin-1(2H)-yl)-5-((4-(6-fluorobenzo[d]isothiazol-3-yl)piperazin-1-yl)methyl)isoindoline-1,3-dione] | B (80%< substrate protein remaining %≤ 100%) | B (80%< substrate protein remaining %≤ 100%) | A (0% ≤ substrate protein remaining % ≤ 80%) | B (80%< substrate protein remaining %≤ 100%) | A (0% ≤ substrate protein remaining % ≤ 80%) | B (80%< substrate protein remaining %≤ 100%) |
| O=C1CCN(N2C(=O)c3ccc(CN4CCN(c5n[nH]c6cc(F)ccc56)CC4)cc3C2=O)C(=O)N1 [GT-07527, 2-(2,4-dioxotetrahydropyrimidin-1(2H)-yl)-5-((4-(6-fluoro-1H-indazol-3-yl)piperazin-1-yl)methyl)isoindoline-1,3-dione] | B (80%< substrate protein remaining %≤ 100%) | B (80%< substrate protein remaining %≤ 100%) | A (0% ≤ substrate protein remaining % ≤ 80%) | B (80%< substrate protein remaining %≤ 100%) | A (0% ≤ substrate protein remaining % ≤ 80%) | B (80%< substrate protein remaining %≤ 100%) |
| O=C1CCN(N2C(=O)c3ccc(CN4CCN(c5c[nH]c6ncccc56)CC4)cc3C2=O)C(=O)N1 [GT-07528, 5-((4-(1H-pyrrolo[2,3-b]pyridin-3-yl)piperazin-1-yl)methyl)-2-(2,4-dioxotetrahydropyrimidin-1(2H)-yl)isoindoline-1,3-dione] | B (80%< substrate protein remaining %≤ 100%) | B (80%< substrate protein remaining %≤ 100%) | A (0% ≤ substrate protein remaining % ≤ 80%) | B (80%< substrate protein remaining %≤ 100%) | A (0% ≤ substrate protein remaining % ≤ 80%) | B (80%< substrate protein remaining %≤ 100%) |
| O=C1CCN(N2C(=O)c3ccc(CN4CCC(n5cnc6cc(F)ccc65)CC4)cc3C2=O)C(=O)N1 [GT-07529, 2-(2,4-dioxotetrahydropyrimidin-1(2H)-yl)-5-((4-(5-fluoro-1H-benzo[d]imidazol-1-yl)piperidin-1-yl)methyl)isoindoline-1,3-dione] | B (80%< substrate protein remaining %≤ 100%) | B (80%< substrate protein remaining %≤ 100%) | A (0% ≤ substrate protein remaining % ≤ 80%) | B (80%< substrate protein remaining %≤ 100%) | A (0% ≤ substrate protein remaining % ≤ 80%) | B (80%< substrate protein remaining %≤ 100%) |
| O=C1CCN(N2C(=O)c3ccc(CN4CCC(c5n[nH]c6cc(F)ccc56)CC4)cc3C2=O)C(=O)N1 [GT-07530, 2-(2,4-dioxotetrahydropyrimidin-1(2H)-yl)-5-((4-(6-fluoro-1H-indazol-3-yl)piperidin-1-yl)methyl)isoindoline-1,3-dione] | B (80%< substrate protein remaining %≤ 100%) | A (0% ≤ substrate protein remaining % ≤ 80%) | A (0% ≤ substrate protein remaining % ≤ 80%) | B (80%< substrate protein remaining %≤ 100%) | A (0% ≤ substrate protein remaining % ≤ 80%) | B (80%< substrate protein remaining %≤ 100%) |
